In a melting point compilation (Tetko et al.):

SMILES | melting point [°C]
Cc1nnc(NC(=O)CCl)s1 | 230 to 232
CCS(=O)(=O)c1ccc(Br)cc1 | 53 to 55
Nc1nc2cc(Br)ccc2[nH]1 | 148 to 150
O=Cc1cccc(NC(=O)c2ccc(Cl)cc2)c1 | 129 to 131
COc1cc(C=O)ccc1OCc1ccc(F)cc1 | 77 to 81
Sc1nnc2n(-c3ccccc3)c(-c3ccccc3)nn12 | 237 to 239
CSC(=C(C#N)C#N)N1CCOCC1 | 143 to 145
Nc1cc(C(F)(F)F)ccc1NCc1ccccc1 | 70 to 75
O=C(O)c1ccnc(NC2CCCC2)c1 | 296 to 298
CCOc1ccc(-c2cc(N)on2)cc1 | 126 to 128
COc1ccc(Cl)cc1-c1cc(N)[nH]n1 | 126 to 128
Sc1nnc(N2CCCC2)s1 | 179 to 181
CN(Cc1cc(C#N)ccc1F)C(=O)CCl | 103 to 105
CC(C)(C)NCCC(N)=O | 95 to 97
COc1nc(C(=O)O)cc2ccccc12 | 184 to 186
COC(=O)c1cccc(-c2nc(C)cs2)c1 | 52 to 54
CS(=O)(=O)c1cccc(OCC(=O)O)c1 | 110 to 112
Nc1nncc(-c2cc(F)ccc2F)n1 | 239 to 241
Cc1cc(S(N)(=O)=O)cc([N+](=O)[O-])c1C | 180 to 182
Cc1ccc2c(CCl)cc(=O)oc2c1 | 170 to 172
COc1ccc(C(=O)O)cc1S(=O)(=O)NC(C)C | 194 to 197
NC1CCN(C(=O)C2CCCCC2)CC1 | 78 to 80
Cc1coc(-c2cccc(N)c2)n1 | 88 to 90
CC(C)C(=O)N(C)CC(=O)O | 109 to 111
Cc1nc2cc(C(F)(F)F)ccc2s1 | 63 to 65
CCS(=O)(=O)c1cccc(F)c1N | 91 to 93

SMILES | melting point [°C]
CN1C(=O)CNC(=O)c2ccccc21 | 175 to 177
O=C(O)C1(c2cccc(C(F)(F)F)c2)CCC1 | 92 to 94
O=c1[nH]c2cc(Br)ccc2o1 | 209 to 211
O=C(O)c1ccc(NS(=O)(=O)c2ccc(Br)cc2)cc1 | 267 to 269
O=C(O)COc1ccc(Cl)cc1C1CCCCC1 | 167 to 169
COC(=O)Cc1ccc([N+](=O)[O-])s1 | 50 to 52
COC(=O)c1cc(N)cc(S(C)(=O)=O)c1 | 194 to 196
O=C(O)c1cccnc1SCc1ccc(F)cc1 | 191 to 193
NCc1cccc(N)n1 | 93 to 95
O=C(O)C1(c2ccc(F)cc2F)CCC1 | 64 to 66
CC(C)c1nc(Cl)nc(N(C)C)n1 | 57 to 59
NC(CCN1CCN(Cc2ccccc2)CC1)=NO | 111 to 113
O=C(O)CNc1ccc(Br)cc1 | 154 to 156
COc1ccc(C(=O)Nc2cccc(C=O)c2)cc1 | 128 to 130
O=[N+]([O-])c1ccc(Br)cc1F | 86 to 88
COc1ccc(C=C(CC(=O)O)c2nc3ccccc3s2)cc1 | 154 to 156
O=Cc1ccc(-c2ccccc2)s1 | 90 to 92
COc1cccc(-c2c[nH]cc2C(=O)O)c1 | 143 to 145
CC(C)(NC(=O)Nc1ccccc1)C(=O)O | 165 to 167
OCc1cnc2ccccc2c1 | 82 to 84
COc1ccccc1-c1cccc(N)c1 | 66 to 68
O=C(O)C1(c2ccccc2)CCOCC1 | 128 to 130
CS(=O)(=O)c1ccc(N)c(C(=O)O)c1 | 239 to 241
Cn1nnc2cc(C(=O)O)cnc21 | 229 to 231
ON=Cc1nc2cc(Cl)ccc2o1 | 206 to 208
Cc1nn(-c2ccccc2)c(N)c1SC#N | 108 to 110

SMILES | melting point [°C]
O=C(O)C1C2CCCC21 (configuration not stated) | 34 to 36
CC1CN(c2ccc(NC(=O)CCl)cc2)CC(C)O1 (configuration not stated) | 175 to 177
CS(=O)(=O)c1ccc(Cl)c(S(N)(=O)=O)c1 | 228 to 230
CS(=O)(=O)c1ccc(N)cc1 | 132 to 134
Cc1nc(C(=O)O)c[nH]1 | 239 to 241
CC(C)NC(=O)C1CCCC(N)C1 (configuration not stated) | 126 to 128
CC(C)c1nc2ccccc2n1CC#N | 116 to 118
Cc1nc(-c2ccc(F)cc2)sc1C(C)O (configuration not stated) | 113 to 115
CC(C)C(NC(=O)c1ccc(Cl)cc1)C(=O)O (configuration not stated) | 197 to 199
COc1cc(Br)ccc1C#N | 135 to 137
O=C1CCCN1Cc1nnc(S)o1 | 172 to 174
CN1Cc2cc(Br)ccc2NC1=O | 209 to 211
NS(=O)(=O)c1ccc2c(c1)NCC2 | 164 to 166
COc1cc(CNC(=O)CCl)cc(OC)c1OC | 106 to 108
CC(N)c1ccc(-c2cncnc2)cc1 (configuration not stated) | 47 to 49
CC(C)(C)c1ccc(-c2csc(N)n2)cc1 | 127 to 129
C/C(=N\O)c1cccc(NC(=O)c2ccc(F)cc2)c1 | 196 to 198
NC(=O)c1cc(F)ccc1Br | 152 to 154
Cn1c(Cl)nnc1-c1ccc(Cl)cc1Cl | 161 to 163
CN(C)S(=O)(=O)c1ccc(O)c(N)c1 | 154 to 156
Cn1cc(CO)c(-c2ccccc2)n1 | 107 to 109
Nc1cc(S(=O)(=O)Nc2ccccc2Cl)ccc1O | 195 to 197
CC(C)Cn1c(N)c(C(=O)CCl)c(=O)n(C)c1=O | 104 to 106
O=c1cc(I)cnn1Cc1ccccc1 | 156 to 158
O=C(O)C1CCCCN1S(=O)(=O)c1ccc([N+](=O)[O-])cc1 (configuration not stated) | 161 to 163
Nc1ccc(N2CCc3ccccc32)cc1C(=O)O | 189 to 191

SMILES | melting point [°C]
COC(=O)c1nc(Cc2ccccc2Cl)n2ccccc12 | 131 to 133
CNc1nc(CC(C)=O)ns1 | 298 to 300
CS(=O)(=O)c1ccc(F)cc1[N+](=O)[O-] | 148 to 150
COC(=O)c1ccc(S(=O)(=O)Cl)c(Cl)c1 | 64 to 66
COc1ccc(-c2noc(CCC(=O)O)n2)cc1OC | 120 to 122
N#Cc1cccc(N2C(=O)CCC2=O)c1 | 134 to 136
O=C(O)c1nnc2c(C(F)(F)F)cccn12 | 139 to 141
CC(Cc1ccc(Cl)cc1)NC(=O)OC(C)(C)C (configuration not stated) | 93 to 95
NCc1ccc(NC(=O)CCCOc2ccccc2)cc1 | 96 to 98
Oc1ccc2c(c1)OCC2O (configuration not stated) | 104 to 106
O=c1[nH]c(-c2cnccn2)no1 | 232 to 234
CC1CC(C(=O)O)CC(=O)N1 (configuration not stated) | 159 to 161
CCc1c(Cl)nc(-c2ccccc2)nc1Cl | 73 to 75
Cn1cnc2cc(C(=O)O)cnc21 | 284 to 286
Cc1ccc(C(=O)c2c(N)sc3c2CCC3)cc1 | 153 to 157
CCOC(=O)c1sc2nc(CN(C)C)nc(Cl)c2c1C | 114 to 116
Nc1cc(F)ccc1Sc1ncn[nH]1 | 180 to 182
CCCC(=O)Nc1ccc(CN)cc1 | 85 to 87
CC(=O)CC(=O)Nc1cccnc1Cl | 83 to 85
CC(C)(C)C(=O)N1CCC(C(=O)O)CC1 | 115 to 127
CCOC(=O)/C(C#N)=C/Nc1ccc(I)cc1 | 155 to 157
COc1ccccc1-c1cc(N)on1 | 93 to 95
O=C1c2ccccc2C(=O)N1C1CCC(O)CC1 (configuration not stated) | 174 to 176
O=C(O)CCc1nc2ccccc2[nH]c1=O | 263 to 265
